{"source": "patent US5849737A", "about": "“Compositions and methods for treating pain” (priority 1995, dated 1998)", "key": {"[1]": {"system": "P45ONF(human) (P-450 PB-1(rat)(IIIA4) enzyme)", "details": "lidocaine metabolite formation; cited from earlier work"}, "[2]": {"system": "tactile allodynia (paw withdrawal thresholds)", "assay": "Tactile allodynia (50% paw withdrawal threshold, von Frey) after intrathecal drug, L5/L6 spinal nerve ligated rats", "type": "in vivo, Male Harlan Sprague-Dawley rats", "details": "IT; lidocaine 500 μg, MEGX 500 μg, 3-OH L 58 μg", "protocol": "(§1) Male Harlan Sprague-Dawley rats were used (100-200 g). Rats were housed 2-3 to a cage with corn cob bedding and Purina rat chow and water ad libitum, in a standard facility with a 12 h/ 12 h day/night cycle. After surgical procedures involving chronic indwelling catheter insertion, animals were housed singly to prevent catheter damage.\nRats were allowed to recover 5-7 days before further testing or surgeries.\n(§2) The catheters were 9 cm in intrathecal length and terminated near the lumbar enlargement. The rostral 3 cm of catheter was tunneled under the skin to externalize between the ears. Rats with neurologic deficits were discarded.\n(§3) Monoethylglycinexylidide (MEGX) was dissolved in physiologic saline; 3-hydroxylidocaine (3-OH L) was dissolved in DMSO for intravenous administration.\nIntravenous drugs were delivered to awake, unrestrained rats by slow infusion using a syringe pump (Harvard apparatus 22). Intrathecal drugs were delivered to awake, briefly restrained rats in a volume of 10 μl, followed by 10 μl of vehicle flush, using a calibrated tubing extension with a 30-gauge adapter fitting the implanted intrathecal catheter, attached to a geared Hamilton 100 μl glass syringe. IT drug delivery was monitored by observing the advancement of a small air bubble down the tubing.\nRats were placed in a plastic cage with an open wire mesh bottom and allowed to accommodate for approximately fifteen minutes. […] In brief, von Frey hairs were sequentially applied using an up-and-down paradigm to the left mid-plantar hindpaw with sufficient force to cause slight filament buckling. Positive responses were noted if the paw was sharply withdrawn. […] Otherwise, PWT were calculated by noting the stimulus level at which the first change in behavior occurred, collecting four additional responses to the continued up-and-down oscillation of stimulus presentation around the response threshold, and interpolating the 50% response threshold. […] The following equation was used to compute %MPE: [formula]\n(§4) Plasma drug levels and PWT were correlated using linear regression. Serially measured PWT and %MPE were compared using repeated measures ANOVA."}, "[3]": {"system": "tactile allodynia (paw withdrawal thresholds)", "assay": "Tactile allodynia (50% paw withdrawal threshold, von Frey) after intravenous drug, L5/L6 spinal nerve ligated rats", "type": "in vivo, Male Harlan Sprague-Dawley rats", "text": "For intravascular access, external jugular catheters were fashioned from PE-50 tubing and inserted into an external jugular vein under halothane/oxygen anesthesia. Arterial catheters were also fashioned from PE-50 with a small bouton 1 cm from the intravascular end for suture securing; they were inserted into a carotid artery, taking care to spare the surrounding nerves. All catheters were flushed with heparinized saline (10 U/ml) and tunneled subcutaneously to emerge at the posterior base of the neck, and capped when not in use. […] Rats were placed in a plastic cage with an open wire mesh bottom and allowed to accommodate for approximately fifteen minutes. A series of 8 von Frey filaments with logarithmically incremental stiffness (0.41, 0.70, 1.20, 2.00, 3.63, 5.50, 8.50, and 15.10 g) (Stoelting, Wood Dale, Ill.) was used to determine the 50% threshold for paw withdrawal to light mechanical stimuli (PWT). In brief, von Frey hairs were sequentially applied using an up-and-down paradigm to the left mid-plantar hindpaw with sufficient force to cause slight filament buckling. Positive responses were noted if the paw was sharply withdrawn. […] Otherwise, PWT were calculated by noting the stimulus level at which the first change in behavior occurred, collecting four additional responses to the continued up-and-down oscillation of stimulus presentation around the response threshold, and interpolating the 50% response threshold. […] The following equation was used to compute %MPE: [formula] Plasma drug levels and PWT were correlated using linear regression. Serially measured PWT and %MPE were compared using repeated measures ANOVA."}, "[4]": {"assay": "Toxicity and plasma bupivacaine levels on intravenous infusion (GC assay)", "type": "in vivo, Male Harlan Sprague-Dawley rats", "text": "For intravascular access, external jugular catheters were fashioned from PE-50 tubing and inserted into an external jugular vein under halothane/oxygen anesthesia. Arterial catheters were also fashioned from PE-50 with a small bouton 1 cm from the intravascular end for suture securing; they were inserted into a carotid artery, taking care to spare the surrounding nerves. All catheters were flushed with heparinized saline (10 U/ml) and tunneled subcutaneously to emerge at the posterior base of the neck, and capped when not in use.\nFor bupivacaine assays, samples were obtained by withdrawing and discarding approximately 0.3 cc of blood from arterial cannulae, and then withdrawing samples of approximately 0.5 cc volume. These samples were centrifuged and the plasma supernatant was frozen at -20° C. until analysis. […]\nBupivacaine was quantitated by capillary GC with nitrogen-phosphorus detection [Bjork M et al., Journal of Chromatography 533:229-234 (1990)]. […] Split injections (1.5:1) were performed with a Hewlett Packard 7673A automatic sampler, and the chromatograms were recorded and analyzed with H-P Chemstation (MSDOS) software. […]\nas §4"}, "[5]": {"details": "DA rats; some species of rats; cited from earlier work"}, "[6]": {"system": "tactile allodynia (paw withdrawal thresholds)", "assay": "Mechanical allodynia after single i.p. dose in SD rats (left L5/L6 spinal nerve ligation)", "type": "in vivo"}, "[7]": {"system": "sural nerve evoked after discharges", "details": "IV, 1 mg/kg; cited from earlier work"}, "[8]": {"system": "polysynaptic C-fiber evoked flexor responses", "details": "IV, 1-5 mg/kg, cited from earlier work"}, "[9]": {"system": "tactile allodynia (paw withdrawal thresholds)", "assay": "Mechanical allodynia after single i.p. dose in DA rats (left L5/L6 spinal nerve ligation)", "type": "in vivo", "details": "for effect on tactile allodynia, DA rats: single i.p. dose, lidocaine 60 mg/kg, 3-OHL 15 mg/kg (P<0.002)"}, "[10]": {"system": "painful diabetic neuropathy", "details": "cited from earlier work; for clinical effect in painful diabetic neuropathy: lidocaine intravenous, mexiletine oral"}, "[11]": {"system": "tactile allodynia (paw withdrawal thresholds)", "details": "IV systemic lidocaine, cited from earlier work"}, "[12]": {"system": "centrally organized nociceptive flexion response", "details": "painful diabetic neuropathy; cited from earlier work"}, "neuromata": {"system": "neuromata", "details": "intravenous, whole animals; cited from earlier work"}, "[13]": {"system": "peripheral nerve injury pain", "details": "lidocaine intravenous; mexiletine oral; cited from earlier work"}, "[14]": {"system": "wide dynamic range neurons", "details": "IV, 3-4 mg/kg, rat; cited from earlier work"}, "dorsal root ganglion": {"system": "dorsal root ganglion", "details": "intravenous, whole animals; cited from earlier work"}, "[15]": {"system": "tactile allodynia (paw withdrawal thresholds)", "details": "after termination of motor block [Chaplan et al. (1993)]; cited from earlier work"}, "motor function": {"system": "motor function", "assay": "Motor and behavioral effects after intrathecal administration", "protocol": "as §1\nTo induce neuropathy, rats were anesthetized with halothane/oxygen, and the left L5/L6 spinal nerves were exposed via a dorsal midline incision and ligated tightly with 6-0 silk suture according to the reported method [Kim S H et al., Pain 50:355-363 (1992)]. Rats were allowed to recover 5-7 days before further testing or surgeries.\nas §2, with “Intrathecal PE-10 catheters were implanted under halothane/oxygen anesthesia [Yaksh T L et al., Physiol Behav 17:1031-1036 (1976)]. The catheters” for “The catheters”\nas §3\nIntravenous drugs were delivered to awake, unrestrained rats by slow infusion using a syringe pump (Harvard apparatus 22). […] IT drug delivery was monitored by observing the advancement of a small air bubble down the tubing."}, "[16]": {"system": "acutely injured peripheral terminals", "details": "in vitro, protein-free system; cited from earlier work"}, "neuropathic pain states": {"system": "neuropathic pain states", "details": "orally available lidocaine congeners; systemically administered local anesthetics; cited from earlier work"}, "trigeminal neuralgia": {"system": "trigeminal neuralgia", "details": "oral; cited from earlier work"}}, "note": "Entries after “also recorded” stand apart in the source; their conditions may differ. Read-outs that look alike come from different tables or passages of the source."}
{"smiles": "CCNCC(=O)Nc1c(C)cccc1C", "note": "[MEGX, Monoethylglycinexylidide]", "values": [{"measurement": "enzyme producing the metabolite MEGX", "setting": "[1]", "result": "produced by the P45ONF(human) (P-450 PB-1(rat)(IIIA4) enzyme"}, {"measurement": "effect on allodynia thresholds after IT delivery", "setting": "[2]", "result": "not MEGX, suppressed allodynia; also recorded: no effect on PWT at this limiting dose"}, {"measurement": "allodynia suppression by IV MEGX", "setting": "[3]; 20 mg/kg, infused over 60 minutes", "result": "completely devoid of anti-allodynia activity by the intravenous route; also recorded: no effect whatsoever"}, {"measurement": "PWT post infusion", "setting": "[3]; MEGX 20 mg/kg IV infused over 60 minutes, baseline 1.7±0.6 g", "result": "1.96 ± 0.4", "unit": "g"}]}
{"smiles": "CCCCN1CCCCC1C(=O)Nc1c(C)cccc1C", "note": "(centres unmarked) [bupivacaine]", "values": [{"measurement": "toxicity on intravenous infusion", "setting": "[4]; IV infusion", "result": "ataxia and lethargy; also recorded: Higher doses resulted in seizure"}, {"measurement": "mean plasma level at higher doses that resulted in seizure", "setting": "[4]; IV, N=4, unit not given", "result": "7.4±0.7"}, {"measurement": "effect of intravenous infusion on allodynia", "setting": "[3]; IV infusion, up to plasma concentrations which caused evident toxicity, 15 samples from 4 rats, P=0.11, linear regression", "result": "inactive against allodynia; also recorded: no effect on allodynia"}, {"measurement": "correlation of plasma bupivacaine levels with %MPE (allodynia suppression)", "setting": "[3]; IV, 4 rats, 15 samples, plasma levels up to toxic range (FIG. 1)", "result": "lack of correlation"}]}
{"smiles": "CCN(CC)CC(=O)Nc1c(C)cccc1C", "note": "[lidocaine]", "values": [{"measurement": "3-hydroxylation / production of 3-OH L in rats", "setting": "[5]", "result": "lack of 3-hydroxylation in this strain"}, {"measurement": "duration of tactile allodynia alleviation, SD rats", "setting": "[6]; lidocaine 60 mg/kg i.p. single dose, N=6, strain difference P<0.002", "result": "more than 16 days"}, {"measurement": "effect on tactile allodynia, SD rats", "setting": "[6]; single i.p. dose, lidocaine 60 mg/kg, 3-OHL 15 mg/kg (P<0.05)", "result": "sustained effect on tactile allodynia in SD rats; also recorded: persistent effects of lidocaine against allodynia"}, {"measurement": "suppression of sural nerve evoked after discharges", "setting": "[7]", "result": "suppression of polysynaptic (spinal cord) sural nerve evoked after discharges"}, {"measurement": "conduction block at the peripheral terminal", "setting": "[8]", "result": "without evidence of conduction block at the peripheral terminal"}, {"measurement": "effect on polysynaptic C-fiber evoked flexor responses", "setting": "[8]; mustard oil and noxious heat", "result": "suppresses polysynaptic C-fiber evoked flexor responses to mustard oil and noxious heat"}, {"measurement": "time of transient effect, DA rats", "setting": "[9]; lidocaine 60 mg/kg i.p.", "result": 30, "unit": "min"}, {"measurement": "effect on tactile allodynia, DA rats", "setting": "[9]", "result": "not effective in this regard in DA rats; also recorded: no sustained effect of lidocaine in DA rats"}, {"measurement": "effect on tactile allodynia, DA rats", "setting": "[9]; listed as Lidocaine", "result": "no sustained effect whatsoever"}, {"measurement": "thermal thresholds", "setting": "[10]; intravenous lidocaine, painful diabetic neuropathy", "result": "without alteration in thermal thresholds"}, {"measurement": "clinical effect in painful diabetic neuropathy", "setting": "[10]", "result": "reduced pain scores for several days"}, {"measurement": "effect on allodynia, intravenous route (earlier reports)", "setting": "[11]; listed as Lidocaine", "result": "effective against allodynia by the intravenous"}, {"measurement": "effect on allodynia, intravenous route (earlier reports)", "setting": "[11]", "result": "long lasting effect by the IV route"}, {"measurement": "nociceptive flexion response", "setting": "[12]", "result": "suppression of the centrally organized nociceptive flexion response"}, {"measurement": "ED50 for discharge suppression in neuromata", "setting": "neuromata", "result": 6, "unit": "mg/kg"}, {"measurement": "effect on allodynia thresholds after IT delivery", "setting": "[2]", "result": "no effect on allodynia was seen"}, {"measurement": "clinical effect in peripheral nerve injury pain", "setting": "[13]", "result": "decreases in spontaneous pain, albeit of short duration"}, {"measurement": "effect on wide dynamic range neuron activity", "setting": "[14]", "result": "selectively suppresses the increased wide dynamic range neuronal activity seen ipsilateral to chronic peripheral nerve injury; also recorded: suppresses noxious-evoked activity in wide dynamic range neurons in the rat"}, {"measurement": "ED50 for discharge suppression, dorsal root ganglion", "setting": "dorsal root ganglion", "result": 1, "unit": "mg/kg"}, {"measurement": "anti-allodynic effect, IT / regional route (earlier report)", "setting": "[15]", "result": "no anti-allodynic effect after termination of motor block"}, {"measurement": "duration of motor dysfunction after IT delivery", "setting": "motor function; 500 μg", "result": "approximately 10 minutes"}, {"measurement": "motor effects after IT delivery", "setting": "motor function; lidocaine 500 μg, MEGX 500 μg, 3-OH L 58 μg", "result": "acute onset of hindquarter flaccidity"}, {"measurement": "ED50, suppression of spontaneous activity", "setting": "[16]", "result": 5.7, "unit": "µg/mL"}]}
{"smiles": "Cc1cccc(C)c1OCC(C)N", "note": "(centres unmarked) [mexiletine]", "values": [{"measurement": "clinical effect in painful diabetic neuropathy", "setting": "[10]", "result": "analgesic effects"}, {"measurement": "clinical effect in peripheral nerve injury pain", "setting": "[13]", "result": "analgesic effects"}, {"measurement": "clinical efficacy in neuropathic pain states", "setting": "neuropathic pain states", "result": "far from universally effective"}, {"measurement": "tolerability in neuropathic pain states", "setting": "neuropathic pain states", "result": "in many cases are poorly tolerated due to side effects, including some which may be life-threatening"}]}
{"smiles": "Cc1cccc(C)c1NC(=O)C(C)N", "note": "(centres unmarked) [tocainide]", "values": [{"measurement": "clinical effect in trigeminal neuralgia", "setting": "trigeminal neuralgia", "result": "analgesic effects"}, {"measurement": "clinical efficacy in neuropathic pain states", "setting": "neuropathic pain states", "result": "far from universally effective"}, {"measurement": "tolerability in neuropathic pain states", "setting": "neuropathic pain states", "result": "in many cases are poorly tolerated due to side effects, including some which may be life-threatening"}]}
